Assay results published in patent US20180312473A1, “PHENAZINE DERIVATIVES AS ANTIMICROBIAL AGENTS” (priority 2015, published 2018).
In brackets after ≈: the same amount, converted by molar mass. Several values for one entry are separate records, joined by “and”; a condition that tells them apart may be missing. Equal entries are not always repeated. Where two headings read alike, the source gives them in different places. Marks after values point to notes of the source that are not given here.

What was measured:
[1] = system: MRSA-2 (methicillin-resistant Staphylococcus aureus clinical isolate); test: MIC assay (broth microdilution, CLSI); format: cell-based; conditions: Staphylococcus aureus, MRSA, read-out: MIC, MRSA-2
[2] = system: MRSE (S. epidermidis ATCC 35984) planktonic cells and biofilms; test: Calgary Biofilm Device (CBD) assay, MBC/MBEC; format: cell-based, Staphylococcus epidermidis; conditions: for MBC: Staphylococcus epidermidis
[3] = system: MRSA-1 (methicillin-resistant Staphylococcus aureus clinical isolate); test: MIC assay (broth microdilution, CLSI); format: cell-based; conditions: Staphylococcus aureus, MRSA, read-out: MIC, MRSA-1
[4] = system: M. tuberculosis H37Ra (ATCC 25177); test: Mycobacterium tuberculosis MIC assay; format: cell-based
Outline: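 Culture diluted to OD600 0.01 and exposed to compounds in 0.5% final DMSO, each compound tested in three rows. Growth read as OD600 absorbance. Data from three independent experiments.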

[5] = system: VRE (E. faecium ATCC 700221) planktonic cells and biofilms; test: Calgary Biofilm Device (CBD) assay, MBC/MBEC; format: cell-based, Enterococcus faecium; conditions: for MBC: Enterococcus
[6] = system: A. baumannii 19606; test: MIC assay (broth microdilution, CLSI); format: cell-based, Acinetobacter baumannii; conditions: Acinetobacter baumannii, 19606; read-out: A. baumannii 19606 MIC
[7] = system: HeLa cells; test: in vitro; format: cell-based
[8] = in vitro; format: cell-based; conditions: human
[9] = system: MRSA BAA-1707; test: MIC assay (broth microdilution, CLSI); conditions: Staphylococcus aureus, read-out: MIC, MRSA BAA-1707
[10] = system: Enterococcus faecium (ATCC 700221), VRE; test: MIC assay (broth microdilution, CLSI); format: cell-based
[11] = Aqueous solubility under MIC assay conditions; format: physicochemical; conditions: MIC assay media, 37 °C, aqueous buffer; read-out: [aq. soluble]
[12] = system: MRSA BAA-44 planktonic cells and biofilms; test: Calgary Biofilm Device (CBD) assay, MBC/MBEC; conditions: Staphylococcus aureus, read-out: MRSA BAA-44 MBC
[13] = system: human red blood cells; test: Hemolysis assay with red blood cells; conditions: human, 1 h, 200 μM, pH 7.2
Outline: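 Washed human red blood cells exposed to compounds added from DMSO stocks, 1 h at 37° C.; supernatant OD read at 405 nm after centrifugation. % hemolysis calculated relative to DMSO (0%) and Triton X (100%) controls, from three independent experiments.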

[14] = Table 2B, a midpoint of 2-fold range, * partial growth inhibition at highest concentration
[15] = Table 7, a midpoint of 2-fold range, b lowest concentration tested
[16] = Table 8, read-out: MRSE 35984 MBC
[17] = Table 2B, b lowest concentration tested
[18] = Mycobacterium tuberculosis, Table 7, read-out: MIC, M. tuberculosis H37Ra
[19] = Table 7, b lowest concentration tested, read-out: MIC, VRE 700221

SMILES	MIC [1, 14]	MIC [1, 15]	MBC ([2]; Table 5, read-out: MRSE MBC)	MBC [2, 16]	MIC [3, 17]	MIC ([3]; Table 11)	MIC [4, 18]	MIC [6]	IC50 ([7]; human, 24 h)	IC50 at 24 h [8]	MIC [9]	MIC [10, 19]	solubility at 16 h [11]	MBC [12]	% Hemolysis (200 μM) [13]	% Hemolysis at 200 μM [13]	other results
Oc1ccc(I)c2nc3cc(Cl)c(Cl)cc3nc12 [Compound 12, 7,8-Dichloro-4-iodo-1-hydroxyphenazine]	0.39 µM (≈ 0.152 µg/mL)	0.39 µM (≈ 0.152 µg/mL)	9.38 µM (≈ 3.67 µg/mL)	9.38 µM (≈ 3.67 µg/mL)	0.2 µM (≈ 0.0782 µg/mL)	0.3 µM (≈ 0.117 µg/mL)	3.13 µM	> 100 µM	> 100 µM	> 100 µM	0.15 µM (≈ 0.0586 µg/mL)	3.13 µM	200 µM (≈ 78.2 µg/mL)	75 µM (≈ 29.3 µg/mL)	1.4%	1.4%	MIC ([1]; Table 2A): 0.39 µM (≈ 0.152 µg/mL); MRSE MBEC ([2]; Table 5): 75 µM; MIC ([4]; Mycobacterium tuberculosis, 168 h, read-out: Mtb MIC): 3.13 µM; MIC ([4]; Mycobacterium tuberculosis, read-out: MIC, M. tuberculosis): ~1 µg/mL; MBC ([5]; read-out: VRE 700221 MBC): 3.13 µM (≈ 1.22 µg/mL); MIC ([10]; Enterococcus faecium, read-out: MIC, Enterococcus faecium (ATCC 700221), Table 2B, b lowest concentration tested): 3.13 µM; MIC ([10]; read-out: MIC, VRE 700221, Table 7, b lowest concentration tested): 3.13 to 6.25 µM
Oc1c(Br)cc(I)c2nc3cc(Cl)c(Cl)cc3nc12 [Compound 14, 2-bromo-7,8-dichloro-4-iodo-1-hydroxyphenazine]	3.13 µM (≈ 1.47 µg/mL)	3.13 µM (≈ 1.47 µg/mL)	1.56 µM (≈ 0.733 µg/mL)	1.56 µM (≈ 0.733 µg/mL)	0.1 µM (≈ 0.047 µg/mL)	0.1 µM (≈ 0.047 µg/mL)	12.5 µM	> 100 µM	> 50 µM	> 50 µM	0.3 µM (≈ 0.141 µg/mL)	0.1 µM	200 µM (≈ 94 µg/mL)	12.5 µM (≈ 5.87 µg/mL)	2.7%	2.7%	MRSE MBEC ([2]; Table 5, listed as 214): 1.56 μM and 1.56/1.56 μM; MIC ([4]; Mycobacterium tuberculosis, 168 h, M. tuberculosis H37Ra, 7 days, read-out: Mtb MIC): 12.5 µM; MIC ([4]; Table 7, read-out: MIC, M. tuberculosis H37Ra): 12.5 µM; MBC ([5]; Table 5, c lowest concentration tested, read-out: VRE MBC): 0.2 µM (≈ 0.094 µg/mL); MBC ([5]; Table 8, c lowest concentration tested, read-out: VRE 700221 MBC): 0.2 µM (≈ 0.094 µg/mL); VRE MBEC ([5]; Table 5, c lowest concentration tested, listed as 214): 0.20 μM and 0.20^c/0.20^c μM; HeLa cytotoxicity at 50 μM [7]: no cytotoxicity was observed; HeLa cytotoxicity at 50 μM ([7]; human, 24 h, 50 μM): No HeLa cell death; HeLa cell death at 100 μM ([7]; human, 24 h, 100 μM): ~70%; MIC ([10]; Enterococcus faecium, Table 2A, read-out: MIC, Enterococcus faecium (ATCC 700221)): < 0.1 µM; MIC ([10]; Enterococcus faecium, Table 2B, b lowest concentration tested, read-out: MIC, Enterococcus faecium (ATCC 700221)): 0.1 µM; MIC, VRE 700221 ([10]; Table 7, b lowest concentration tested): 0.10^b μM; MIC ([10]; read-out: MIC, VRE): 0.05 µg/mL
